Assay results reported in the NIST ThermoML archive (doi:10.1021/je060380p).
± gives the expanded uncertainty stated by the source.

Conditions: Crystal; visual observation

c1ccc2cc3ccccc3cc2c1 [anthracene]
Normal melting temperature: 216 ± 1 °C
